Measured values as given in patent US20250059193A1, “POLYMORPHIC AND SALT FORMS OF (1S,3S)-N1-(5-(PENTAN-3-YL)PYRAZOLO[1,5-A]PYRIMIDIN-7-YL) CYCLOPENTANE-1,3-DIAMINE” (Kronos Bio, Inc., priority 2021, published 2025).
Structures can show the parent of a compound that is named as a salt.

Tests used:
Type in all cases: physicochemical
[1] = Accelerated aging conditions (AAC; 40° C./75% RH), solids reanalyzed by XRPD; settings: solid form by XRPD
Description: Next, the resulting solids were combined with another solvent (acetonitrile (AcN) or ethanol) and the resulting mixtures were stirred at room temperature (RT). After stirring, the solids were isolated by centrifugation and part of the solids was harvested on a 96-well plate and dried under ambient conditions. The remaining part of the solids was dried under vacuum (5 mbar [i.e. 500 Pa], RT, 18 h). All solids were analyzed by XRPD, subjected to accelerated aging conditions (AAC; 40° C./75% RH) and reanalyzed by XRPD. The procedure and resulting tosylate forms are shown in the table below, wherein forms were identified by XRD.
Next, the resulting solids were combined with another solvent (acetonitrile (AcN) or chloroform) and the resulting mixtures were stirred at room temperature (RT). After stirring, the solids were isolated by centrifugation and part of the solids was harvested on a 96-well plate and dried under ambient conditions. The remaining part of the solids was dried under vacuum (5 mbar, RT, 18 h). All solids were analyzed by XRPD, subjected to AAC (accelerated aging conditions; 40° C./75% RH) and reanalyzed by XRPD.
Next, the resulting solids were combined with another solvent (AcN, diethyl ether, or toluene), and the resulting mixtures were stirred at room temperature (RT). After stirring, the solids were isolated by centrifugation and part of the solids was harvested on a 96-well plate and dried under ambient conditions. The remaining part of the solids was dried under vacuum (5 mbar, RT, 18 h). All solids were analyzed by XRPD, subjected to AAC (40° C./75% RH) and reanalyzed by XRPD.
Next, the resulting solids were combined with another solvent (1,4-dioxane, acetonitrile, ethyl acetate), and the resulting mixtures were stirred at room temperature (RT). After stirring, the solids were isolated by centrifugation and part of the solids was harvested on a 96-well plate and dried under ambient conditions. The remaining part of the solids was dried under vacuum (5 mbar, RT, 18 h). All solids were analyzed by XRPD, subjected to AAC (40° C./75% RH) and reanalyzed by XRPD.
Next, the resulting solids were combined with another solvent (acetonitrile or diethyl ether), and the resulting mixtures were stirred at room temperature (RT). After stirring, the solids were isolated by centrifugation and part of the solids was harvested on a 96-well plate and dried under ambient conditions. The remaining part of the solids was dried under vacuum (5 mbar, RT, 18 h). All solids were analyzed by XRPD, subjected to AAC (40° C./75% RH) and reanalyzed by XRPD.

[2] = Solubility of free base and salt forms; settings: for solubility compared with the free base: physiological conditions, salt forms versus free base; for solubility at 24 h: thermodynamic from solid
Source text: (§1) FaSSGF is Fasted State Simulated Gastric Fluid. Solubility is reported in mg/mL.

[3] = pH of the solubility samples
Description: The pH was recorded with a Metrohm 913 PH meter, equipped with a WTW SenTix® MIC-B electrode.
as §1

[4] = Repeat XRD of amorphous free base from slow evaporation of ethanol solution; settings: product of slow evaporation of ethanol solution of form I
Description: Initial attempts to generate an amorphous form of the free base were conducted by slow evaporation of a form I solution. In particular, form I was dissolved in ethanol according to the chart below and then allowed to slowly evaporate.

[5] = Medium 100 mM phosphate, pH Buffer 6.8

Compound | 3 days AAC (XRPD form) [1] | Solubility (2 h) [2, 5] [mg/mL] | Solubility (24 h) [2, 5] [mg/mL] | Solubility (2 h) ([2]; Medium FaSSGF, pH Buffer 1.6) [mg/mL] | Solubility (24 h) ([2]; Medium FaSSGF, pH Buffer 1.6) [mg/mL] | solubility compared with the free base [2] | pH (30 min) [3, 5] | pH (2 h) [3, 5] | pH (24 h) [3, 5] | pH (30 min) ([3]; Medium FaSSGF, pH Buffer 1.6) | pH (2 h) ([3]; Medium FaSSGF, pH Buffer 1.6) | pH (24 h) ([3]; Medium FaSSGF, pH Buffer 1.6) | also measured
CCC(CC)c1cc(N[C@H]2CC[C@H](N)C2)n2nccc2n1 [Fumarate IV] | Form III | – | – | – | – | – | – | – | – | – | – | – | –
CCC(CC)c1cc(N[C@H]2CC[C@H](N)C2)n2nccc2n1 [fumarate salt] | Form III | – | – | – | – | – | – | – | – | – | – | – | –
CCC(CC)c1cc(N[C@H]2CC[C@H](N)C2)n2nccc2n1 [Citrate I] | – | >137 | >137 | >127 | >127 | increased | 4.5 | 6.7 | 6.7 | 4.4 | 1.6 | 1.6 | –
CCC(CC)c1cc(N[C@H]2CC[C@H](N)C2)n2nccc2n1 [Oxalate II] | Form II | – | – | – | – | – | – | – | – | – | – | – | 5 days AAC (XRPD form) [1]: Form II
CCC(CC)c1cc(N[C@H]2CC[C@H](N)C2)n2nccc2n1 [Tosylate amorphous] | Form II | – | – | – | – | – | – | – | – | – | – | – | 5 days AAC (XRPD form) [1]: Form II
CCC(CC)c1cc(N[C@H]2CC[C@H](N)C2)n2nccc2n1 [Free base I, (1S,3S)—N^1—(5-(pentan-3-yl)pyrazolo[1,5-α]pyrimidin-7-yl)cyclopentane-1,3-diamine] | – | – | – | – | – | – | – | – | – | – | – | – | solubility at 24 h ([2]; 50 mM phosphate buffer, pH 1.6, aqueous buffer, Medium 50 mM phosphate, pH Buffer 1.6 as printed): 9.8 mg/mL; solubility at 24 h ([2]; FaSSGF (Fasted State Simulated Gastric Fluid), pH 7.4, fassgf or other biorelevant, Medium FaSSGF, pH Buffer 7.4 as printed): 5.9 mg/mL; solubility ([2]; water): 5.9 mg/mL; solubility at 24 h ([2]; water, Medium Water): 5.1 mg/mL; pH (24 h) ([3]; Medium 50 mM phosphate, pH Buffer 1.6 as printed): 9.4; pH (24 h) ([3]; Medium FaSSGF, pH Buffer 7.4 as printed): 10.2; pH (24 h) ([3]; Medium Water): 10.1
CCC(CC)c1cc(N[C@H]2CC[C@H](N)C2)n2nccc2n1 [Tosylate III] | – | 8.7 | 2.92 | >129 | >129 | increased | 2.7 | 6.8 | 7.0 | 1.0 | 1.9 | 2.1 | –
CCC(CC)c1cc(N[C@H]2CC[C@H](N)C2)n2nccc2n1 [Camsylate II] | Form II | 28.9 | 42.2 | >380 | >380 | increased | 4.1 | 7.4 | 7.5 | 1.6 | 1.7 | 1.7 | 5 days AAC (XRPD form) [1]: Form III
CCC(CC)c1cc(N[C@H]2CC[C@H](N)C2)n2nccc2n1 [Fumarate III] | – | >107 | >107 | >48 | >48 | increased | 4.5 | 7.2 | 7.3 | 4.1 | 1.6 | 1.7 | –
CCC(CC)c1cc(N[C@H]2CC[C@H](N)C2)n2nccc2n1 [Oxalate III] | – | 55.5 | 38.1 | >392 | >392 | increased | 2.1 | 6.7 | 6.8 | 1.6 | 1.6 | 1.5 | –
CCC(CC)c1cc(N[C@H]2CC[C@H](N)C2)n2nccc2n1 [Fumarate II] | Form III | – | – | – | – | – | – | – | – | – | – | – | –
CCC(CC)c1cc(N[C@H]2CC[C@H](N)C2)n2nccc2n1 [amorphous product] | – | – | – | – | – | – | – | – | – | – | – | – | XRD of amorphous product after about 45 minutes [4]: began crystalizing
